Target: T1, RXFP2 (Homo sapiens, UniProt Q8WXD0)
T1 construct: expressed in transfected cells
Test: HTRF cAMP assay in HEK293T cells stably expressing RXFP2 (HEK-RXFP2)
Type: cell-based
Conditions: for % EFF vs. 1 nM INSL3 (b): normalized to 1 nM INSL3 cAMP response; for % EFF vs. 100 nM INSL3 (c): normalized to 100 nM INSL3 cAMP response; for % EFF vs. 1 nM INSL3 (a): maximum cAMP response normalized to 1 nM INSL3 response
Experimental: Compound efficacy and EC50 were determined by measuring cAMP induction in vitro. HEK293T cells stably expressing RXFP2 (HEK-RXFP2) produce cAMP when RXFP2 is activated, which can be measured in an antibody-based immunoassay utilizing a fluorescent readout (cAMP Gs HiRange Kit, PerkinElmer, Waltham, MA). HEK-RXFP2 cells were seeded in 96-well plates in serum-free DMEM and incubated overnight at 37° C., 5% CO2. Plates were then treated with a compound titration up to 25 μM or INSL3 control, in the presence of isobutylmethylxanthine phosphodiesterase inhibitor (IBMX) at 200 μM to amplify the cAMP signal, for 1 hour at 37° C., 5% CO2 before being processed as per kit instructions. Table 7 lists the efficacy and EC50 of compounds tested under different experimental conditions. […] In condition (a), 20,000 cells were seeded per well in the 96 well plate, and efficacy was determined by normalizing the maximum compound cAMP response to the 1 nM INSL3 cAMP response (% Efficacy 1 nM INSL3 (a)). In condition (b), 10,000 cells were seeded per well, and compound response was normalized to the 1 nM INSL3 cAMP response (% Efficacy 1 nM INSL3 (b)). In condition (c), 7,500 cells were seeded per well, compound response was normalized to the 100 nM INSL3 cAMP response, and IBMX was omitted (% Efficacy 100 nM INSL3 (c)). A range is given when compounds were tested multiple times. Where compounds were tested under multiple experimental conditions, the EC50 listed for the corresponding condition is marked (a) through (c) to correlate. When EC50 could not be calculated from the dose-response curve, EC50 is listed as not determined (ND).

[1] = condition (b): 10,000 cells/well, IBMX 200 μM
[2] = condition (c): 7,500 cells/well, IBMX omitted
[3] = condition (a): 20,000 cells/well, IBMX 200 μM

T1 sequence (Q8WXD0 whole entry): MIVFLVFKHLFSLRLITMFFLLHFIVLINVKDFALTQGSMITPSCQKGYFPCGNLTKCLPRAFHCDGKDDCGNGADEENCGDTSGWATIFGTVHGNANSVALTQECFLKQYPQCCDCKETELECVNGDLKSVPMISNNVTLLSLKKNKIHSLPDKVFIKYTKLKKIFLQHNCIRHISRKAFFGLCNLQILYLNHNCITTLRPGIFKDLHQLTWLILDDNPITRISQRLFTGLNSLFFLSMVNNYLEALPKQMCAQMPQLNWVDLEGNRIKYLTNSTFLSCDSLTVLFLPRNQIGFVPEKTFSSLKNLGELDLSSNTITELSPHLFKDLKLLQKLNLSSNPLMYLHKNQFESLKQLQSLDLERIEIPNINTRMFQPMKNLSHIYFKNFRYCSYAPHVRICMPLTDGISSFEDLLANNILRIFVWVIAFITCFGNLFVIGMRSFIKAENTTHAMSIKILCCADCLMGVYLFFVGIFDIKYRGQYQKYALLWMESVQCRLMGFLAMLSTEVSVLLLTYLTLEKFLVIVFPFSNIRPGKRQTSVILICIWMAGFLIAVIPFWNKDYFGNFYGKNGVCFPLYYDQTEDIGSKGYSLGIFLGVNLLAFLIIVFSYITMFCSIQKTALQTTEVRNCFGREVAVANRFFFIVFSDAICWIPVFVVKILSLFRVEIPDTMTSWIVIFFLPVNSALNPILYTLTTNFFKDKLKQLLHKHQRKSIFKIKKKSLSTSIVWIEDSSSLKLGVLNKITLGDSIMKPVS

SMILES	% EFF vs. 1 nM INSL3 (b) [1]	% EFF vs. 1 nM INSL3 (a) [3]	other results
O=C1Nc2cnc(-c3cc(C(F)(F)F)cc(C(F)(F)F)c3)cc2C(=O)N2CCN(C(=O)COc3ccc(OC(F)(F)F)cc3I)C[C@@H]12 (single isomer, unassigned) [Example 196]			EC50 [2]: 984 nM; % EFF vs. 100 nM INSL3 (c) [2]: 109.23%
O=C1Nc2cnc(-c3cc(C(F)(F)F)cc(C(F)(F)F)c3)cc2C(=O)N2CCN(C(=O)COc3ccc(OC(F)(F)F)cc3Br)C[C@@H]12 (single isomer, unassigned) [Example 197]			% EFF vs. 100 nM INSL3 (c) [2]: 104.06%
O=C1Nc2ncc(-c3cc(C(F)(F)F)cc(C(F)(F)F)c3)cc2C(=O)N2CCN(C(=O)COc3ccc(OC(F)(F)F)cc3I)C[C@@H]12 (single isomer, unassigned) [Example 202]			EC50 [2]: 40.7 nM; % EFF vs. 100 nM INSL3 (c) [2]: 102.23%
O=C1Nc2ccc(-c3cc(C(F)(F)F)cc(C(F)(F)F)c3)nc2C(=O)N2CCN(C(=O)COc3ccc(OC(F)(F)F)cc3I)C[C@@H]12 (single isomer, unassigned) [Example 206]			EC50 [2]: 563 nM; % EFF vs. 100 nM INSL3 (c) [2]: 60.89%
Cc1cc(OC(F)(F)F)ccc1OCC(=O)N1CCN2C(=O)c3cc(-c4ccnc(C(F)(F)F)c4)ccc3NC(=O)C2C1 (stereo not shown) [Example 40, 2-(2-(2-methyl-4-(trifluoromethoxy)phenoxy)acetyl)-8-(2-(trifluoromethyl)pyridin-4-yl)-1,3,4,12a-tetrahydrobenzo[e]pyrazino[1,2-a][1,4]diazepine-6,12 (2H, 11H)-dione]	47.69%		
O=C1Nc2ccc(-c3cccc(C(F)(F)F)c3)cc2C(=O)N2CCN(C(=O)COc3ccc(OC(F)F)cc3F)CC12 (stereo not shown) [Example 55, 2-(2-(4-(difluoromethoxy)-2-fluorophenoxy)acetyl)-8-(3-(trifluoromethyl)phenyl)-1,3,4,12a-tetrahydrobenzo[e]pyrazino[1,2-a][1,4]diazepine-6,12 (2H, 11H)-dione]		20.07-42.35%	EC50 [3]: 24.4 to 59.4 nM
Cc1cc(OC(F)(F)F)ccc1OCC(=O)N1CCN2C(=O)c3cc(-c4cccc(C(F)(F)F)c4)ccc3NC(=O)C2C1 (stereo not shown) [Example 64, 2-(2-(2-methyl-4-(trifluoromethoxy)phenoxy)acetyl)-8-(3-(trifluoromethyl)phenyl)-1,3,4,12a-tetrahydrobenzo[e]pyrazino[1,2-a][1,4]diazepine-6,12 (2H, 11H)-dione]		56.29-60.35%	EC50 [3]: 37 to 56.6 nM
O=C1Nc2ccc(-c3cccc(C(F)(F)F)c3)cc2C(=O)N2CCN(C(=O)COc3ccc(C(F)(F)F)c(F)c3F)CC12 (stereo not shown) [Example 68, 2-(2-(2,3-difluoro-4-(trifluoromethyl)phenoxy)acetyl)-8-(3-(trifluoromethyl)phenyl)-1,3,4,12a-tetrahydrobenzo[e]pyrazino[1,2-a][1,4]diazepine-6,12 (2H, 11H)-dione]		33.99%	EC50 [3]: 8.56 nM
O=C1Nc2ccc(-c3ccc(C(F)(F)F)s3)cc2C(=O)N2CCN(C(=O)COc3ccccc3)CC12 (stereo not shown) [Example 107, 2-(2-phenoxyacetyl)-8-(5-(trifluoromethyl)thiophen-2-yl)-1,3,4,12a-tetrahydrobenzo[e]pyrazino[1,2-a][1,4]diazepine-6,12 (2H, 11H)-dione]		27.96%	
Cc1cc(OC(F)(F)F)ccc1OCC(=O)N1CCN2C(=O)c3cc(-c4cccc(C(F)(F)F)n4)ccc3NC(=O)C2C1 (stereo not shown) [Example 108, 2-(2-(2-methyl-4-(trifluoromethoxy)phenoxy)-acetyl)-8-(6-(trifluoromethyl)pyridin-2-yl)-1,3,4,12a-tetrahydrobenzo[e]pyrazino[1,2-a][1,4]diazepine-6,12 (2H, 11H)-dione]	38.19%		
O=C1Nc2ccc(-c3cccc(C(F)(F)F)c3)cc2C(=O)N2CCN(C(=O)COc3ccccc3)C[C@@H]12 [Example 112, (S)-2-(2-phenoxyacetyl)-8-(3-(trifluoromethyl)phenyl)-1,3,4,12a-tetrahydrobenzo[e]pyrazino[1,2-a][1,4]diazepine-6,12 (2H, 11H)-dione]		12.93%	
O=C1Nc2ccc(-c3cccc(C(F)(F)F)c3)cc2C(=O)N2CCN(C(=O)COc3ccccc3)C[C@H]12 [Example 115, (R)-2-(2-phenoxyacetyl)-8-(3-(trifluoromethyl)phenyl)-1,3,4,12a-tetrahydrobenzo[e]pyrazino[1,2-a][1,4]diazepine-6,12 (2H, 11H)-dione]		3.69%	
O=C1Nc2ccc(-c3cccc(C(F)(F)F)c3)cc2C(=O)N2CCN(C(=O)COc3ccc(OC(F)(F)F)cc3Cl)C[C@@H]12 [Example 117, (S)-2-(2-(2-chloro-4-(trifluoromethoxy)phenoxy)acetyl)-8-(3-(trifluoromethyl)phenyl)-1,3,4,12a-tetrahydrobenzo[e]pyrazino[1,2-a][1,4]diazepine-6,12 (2H, 11H)-dione]	77.84%		EC50 [1]: 15.6 nM
O=C1Nc2ccc(-c3cccc(C(F)(F)F)c3)cc2C(=O)N2CCN(C(=O)COc3ccc(OC(F)(F)F)cc3Cl)C[C@H]12 [Example 118, (R)-2-(2-(2-chloro-4-(trifluoromethoxy)phenoxy)acetyl)-8-(3-(trifluoromethyl)phenyl)-1,3,4,12a-tetrahydrobenzo[e]pyrazino[1,2-a][1,4]diazepine-6,12 (2H, 11H)-dione]		43.71%	

The next lines start with results.

% EFF vs. 1 nM INSL3 (b) [1]	% EFF vs. 1 nM INSL3 (a) [3]	SMILES	other results
67.7%		O=C1Nc2ccc(-c3cc(C(F)(F)F)ccc3F)cc2C(=O)N2CCN(C(=O)COc3ccc(OC(F)(F)F)cc3Cl)CC12 (racemic) [Example 104, 2-(2-(2-chloro-4-(trifluoromethoxy)phenoxy)acetyl)-8-(2-fluoro-5-(trifluoromethyl)phenyl)-1,3,4,12a-tetrahydrobenzo[e]pyrazino[1,2-a][1,4]diazepine-6,12 (2H, 11H)-dione]	EC50 [1]: 17.7 nM
50.30%		N#Cc1cc(-c2ccc3c(c2)C(=O)N2CCN(C(=O)COc4ccc(OC(F)(F)F)cc4Cl)CC2C(=O)N3)cc(C(F)(F)F)c1 (racemic) [Example 106, 3-(2-(2-(2-chloro-4-(trifluoromethoxy)phenoxy)acetyl)-6,12-dioxo-1,2,3,4,6,11,12,12a-octahydrobenzo[e]pyrazino[1,2-a]1[1,4]diazepin-8-yl)-5-(trifluoromethyl)benzonitrile]	EC50 [1]: 31.5 nM
33.78%		Cc1cc(OC(F)(F)F)ccc1OCC(=O)N1CCN2C(=O)c3cc(-c4cncc(C(F)(F)F)c4)ccc3NC(=O)C2C1 (stereo not shown) [Example 41, 2-(2-(2-methyl-4-(trifluoromethoxy)phenoxy)acetyl)-8-(5-(trifluoromethyl)pyridin-3-yl)-1,3,4,12a-tetrahydrobenzo[e]pyrazino[1,2-a][1,4]diazepine-6,12 (2H, 11H)-dione]	
	35.5%	O=C1Nc2ccc(-c3cccc(C(F)(F)F)c3)cc2C(=O)N2CCN(C(=O)COc3ccc(OC(F)(F)F)cc3F)CC12 (stereo not shown) [Example 101, 2-(2-(2-fluoro-4-(trifluoromethoxy)phenoxy)acetyl)-8-(3-(trifluoromethyl)phenyl)-1,3,4,12a-tetrahydrobenzo[e]pyrazino[1,2-a][1,4]diazepine-6,12 (2H, 11H)-dione]	EC50 [3]: 24.5 nM
81.13-152.31%	143.62%	Cc1cc(-c2ccc3c(c2)C(=O)N2CCN(C(=O)COc4ccc(OC(F)(F)F)cc4Cl)CC2C(=O)N3)cc(C(F)(F)F)c1 (stereo not shown) [Example 105, 2-(2-(2-chloro-4-(trifluoromethoxy)phenoxy)acetyl)-8-(3-methyl-5-(trifluoromethyl)phenyl)-1,3,4,12a-tetrahydrobenzo[e]pyrazino[1,2-a][1,4]diazepine-6,12 (2H, 11H)-dione]	EC50 [1]: 84.2 to 219 nM
70.76%		Cc1cc(OC(F)(F)F)ccc1OCC(=O)N1CCN2C(=O)c3cc(-c4cccc(C(F)(F)F)c4)ccc3NC(=O)[C@@H]2C1 [Example 120, (S)-2-(2-(2-methyl-4-(trifluoromethoxy)phenoxy)acetyl)-8-(3-(trifluoromethyl)phenyl)-1,3,4,12a-tetrahydrobenzo[e]pyrazino[1,2-a][1,4]diazepine-6,12 (2H, 11H)-dione]	EC50 [1]: 8.6 nM
	28.28%	Cc1cc(OC(F)(F)F)ccc1OCC(=O)N1CCN2C(=O)c3cc(-c4cccc(C(F)(F)F)c4)ccc3NC(=O)[C@H]2C1 [Example 121, (R)-2-(2-(2-methyl-4-(trifluoromethoxy)phenoxy)acetyl)-8-(3-(trifluoromethyl)phenyl)-1,3,4,12a-tetrahydrobenzo[e]pyrazino[1,2-a][1,4]diazepine-6,12 (2H, 11H)-dione]	

Reference: patent publication US20250134907A1, “FUSED DIAZEPINES AS AGONISTS OF THE INSULIN-LIKE 3 (INSL3) PEPTIDE RECEPTOR RXFP2 AND METHODS OF USE THEREOF” (The United States of America,as represented by the …, priority 2022, published 2025)
